Target: T1, mGlyT-1b (Mus musculus, UniProt P28571)
T1 construct: host or cells: Flp-in-CHO cells (vendor and catalogue number are those of the host cell line)
T1 sequence (P28571 1-651 isoform P28571-2): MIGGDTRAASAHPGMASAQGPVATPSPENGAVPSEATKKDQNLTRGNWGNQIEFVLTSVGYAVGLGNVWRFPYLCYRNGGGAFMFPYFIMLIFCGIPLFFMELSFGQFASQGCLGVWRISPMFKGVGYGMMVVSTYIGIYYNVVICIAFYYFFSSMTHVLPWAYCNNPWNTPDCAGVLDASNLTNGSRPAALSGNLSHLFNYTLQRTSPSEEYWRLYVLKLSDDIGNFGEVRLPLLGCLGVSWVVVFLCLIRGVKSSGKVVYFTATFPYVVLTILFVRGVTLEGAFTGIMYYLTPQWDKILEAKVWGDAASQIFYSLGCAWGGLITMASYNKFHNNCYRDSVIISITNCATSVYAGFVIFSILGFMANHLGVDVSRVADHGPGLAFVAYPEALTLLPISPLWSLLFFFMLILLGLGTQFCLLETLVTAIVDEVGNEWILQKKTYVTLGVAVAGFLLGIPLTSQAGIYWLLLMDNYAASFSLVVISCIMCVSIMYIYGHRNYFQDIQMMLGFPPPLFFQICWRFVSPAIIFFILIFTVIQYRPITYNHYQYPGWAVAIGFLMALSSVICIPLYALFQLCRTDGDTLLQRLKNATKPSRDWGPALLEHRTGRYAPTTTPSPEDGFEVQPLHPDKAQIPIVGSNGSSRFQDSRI
Assay: Glycine Uptake Inhibition Assay (mGlyT-1b)
Assay type: cell-based
Conditions: inhibition of [3H]-glycine uptake in Flp-in-CHO cells transfected with mGlyT-1b cDNA; 20 min preincubation at 22° C.; read-out: IC50 (μM) at GlyT-1
Procedure: DMEM complete medium: Nutrient mixture F-12 (Gibco Life-technologies), fetal bovine serum (FBS) 5%, (Gibco life technologies), Penicillin/Streptomycin 1% (Gibco life technologies), Hygromycin 0.6 mg/ml (Gibco life technologies), Glutamine 1 mM Gibco life technologies)
Uptake buffer (UB): 150 mM NaCl, 10 mM Hepes-Tris, pH 7.4, 1 mM CaCl2, 2.5 mM KCl, 2.5 mM MgSO4, 10 mM (+) D-glucose.
Flp-in™-CHO (Invitrogen Cat n° R758-07) cells stably transfected with mGlyT1b cDNA.
Glycine Uptake Inhibition Assay (mGlyT-1b)
On day 1 mammalian cells, (Flp-in™-CHO), transfected with mGlyT-1b cDNA, were plated at the density of 40,000 cells/well in complete F-12 medium, without hygromycin in 96-well culture plates. On day 2, the medium was aspirated and the cells were washed twice with uptake buffer (UB). The cells were then incubated for 20 min at 22° C. with either (i) no potential competitor, (ii) 10 mM non-radioactive glycine, (iii) a concentration of a potential inhibitor. A range of concentrations of the potential inhibitor was used to generate data for calculating the concentration of inhibitor resulting in 50% of the effect (e.g. IC50, the concentration of the competitor inhibiting glycine uptake of 50%). A solution was then immediately added containing [^3H]-glycine 60 nM (11–16 Ci/mmol) and 25 μM non-radioactive glycine. The plates were incubated with gentle shaking and the reaction was stopped by aspiration of the mixture and washing (three times) with ice-cold UB. The cells were lysed with scintillation liquid, shaken 3 hours and the radioactivity in the cells was counted using a scintillation counter.

Structure (SMILES) | IC50 [µM]
Cc1nc(N2CCN(C(=O)c3cc(S(C)(=O)=O)ccc3O[C@H](C)C(F)(F)F)CC2)sc1C(F)(F)F [Example 81, [5-Methanesulfonyl-2-((R)-2,2,2-trifluoro-1-methyl-ethoxy)-phenyl]-[4-(4-methyl-5-trifluoromethyl-thiazol-2-yl)-piperazin-1-yl]-methanone] | 0.044
CC(C)Sc1ccc(S(C)(=O)=O)cc1C(=O)N1CCN(c2ncc(C(F)(F)F)s2)CC1 [Example 84, (2-Isopropylsulfanyl-5-methanesulfonyl-phenyl)-[4-(5-trifluoromethyl-thiazol-2-yl)-piperazin-1-yl]-methanone] | 0.076
C[C@H](Oc1ccc(S(C)(=O)=O)cc1C(=O)N1CCN(c2nnc(C(F)(F)F)s2)CC1)C(F)(F)F [Example 93, [5-Methanesulfonyl-2-((S)-2,2,2-trifluoro-1-methyl-ethoxy)-phenyl]-[4-(5-trifluoromethyl-[1,3,4]thiadiazol-2-yl)-piperazin-1-yl]-methanone] | 0.075
CNS(=O)(=O)c1ccc(OC2CCCC2)c(C(=O)N2CCN(c3ncc(C#N)s3)CC2)c1 [Example 99, 3-[4-(5-Cyano-thiazol-2-yl)-piperazine-1-carbonyl]-4-cyclopentyloxy-N-methyl-benzenesulfonamide] | 0.021
CNS(=O)(=O)c1ccc(OC2CCCC2)c(C(=O)N2CCN(c3nc(-c4ccccc4)ns3)CC2)c1 [Example 100, 4-Cyclopentyloxy-N-methyl-3-[4-(3-phenyl-[1,2,4]thiadiazol-5-yl)-piperazine-1-carbonyl]-benzenesulfonamide] | 0.055
CNS(=O)(=O)c1ccc(OC2CCCC2)c(C(=O)N2CCN(c3nnc(C(F)(F)F)s3)CC2)c1 [Example 101, 4-Cyclopentyloxy-N-methyl-3-[4-(5-trifluoromethyl-[1,3,4]thiadiazol-2-yl)-piperazine-1-carbonyl]-benzenesulfonamide] | 0.026
CS(=O)(=O)c1ccc(OCC(F)(F)C(F)(F)F)c(C(=O)N2CCN(c3ncc(C(F)(F)F)s3)CC2)c1 [Example 103, [5-Methanesulfonyl-2-(2,2,3,3,3-pentafluoro-propoxy)-phenyl]-[4-(5-trifluoromethyl-thiazol-2-yl)-piperazin-1-yl]-methanone] | 0.006
